{"source": "patent US7572768B2", "about": "“Methods for identifying compounds for regulating muscle mass or function using corticotropin releasing factor receptors” (priority 2001, dated 2009)", "assay_type_in_all_cases": "in vivo", "key": {"skeletal muscle atrophy [1]": {"tested_on": "skeletal muscle atrophy", "assay": "Example 13: prophylactic treatment of skeletal muscle atrophy in comatose subject", "details": "human 60 kg, slow i.v. infusion once each day, 5 ml of 12 mg/ml stock in 500 ml saline", "protocol": "A human subject weighing 60 kg is admitted to the hospital in a comatose state. The subject is treated by this method to prevent atrophy of the skeletal muscle of the entire body due to disuse in the comatose state. Specifically, once each day while in the coma, the subject is administered, via slow intravenous infusion, approximately 500 ml of an aqueous solution that is prepared by addition of 5 ml of the following stock solution to 500 ml of sterile saline: […]"}, "skeletal muscle atrophy [2]": {"tested_on": "skeletal muscle atrophy", "assay": "animal models of skeletal muscle atrophy (summary of FIGS. 1-9)", "details": "theophylline administered alone in these atrophy models", "protocol": "Theophylline was added to potentiate the duration and magnitude of action of the CRFR agonist therefore resulting in increased efficacy of these compounds. […] Statistical significance of the results was determined using ANCOVA (Douglas C. Montgomery, Design and Analysis of Experiments, John Wiley and Sons, New York (2nd ed. 1984)). Abbreviations used in FIGS. 1-9: g-gram; SEM-standard error of the mean."}, "[3]": {"tested_on": "denervation-induced atrophy of skeletal muscle", "assay": "mouse sciatic nerve denervation atrophy model", "details": "FIG. 5, day nine", "protocol": "Legend: A—physiological saline (control); B—sauvagine (0.01 mg/kg)+theophylline; C—sauvagine (0.03 mg/kg)+theophylline; D—sauvagine (0.1 mg/kg)+theophylline; E—sauvagine (1.0 mg/kg)+theophylline; *—p≦0.05 compared to saline. Following denervation of the right sciatic nerve, male mice were injected subcutaneously in the midscapular region twice daily with sauvagine, at the doses indicated above or vehicle control (physiological saline) for nine days. Sauvagine was co-administered with 30 mg/kg theophylline. On day nine, the medial gastrocnemius muscle was removed and weighed to determine the degree of atrophy.\nLegend: A—water (control); B—sauvagine (0.1 mg/kg/d); C—sauvagine (0.3 mg/kg/d); D—sauvagine (1.0 mg/kg/d); *—p≦0.05 compared to water. Following denervation of the right sciatic nerve, male mice were dosed with either sauvagine or vehicle control (physiological saline) by continuous infusion using an Alzet osmotic minipump at 5 μl/hr until the end of the experimental period (without additional theophylline). The daily delivered dose of sauvagine is indicated above. Minipump implantation was performed at the time of sciatic nerve denervation. On day nine the tibialis anterior muscle was removed and weighed to determine the degree of atrophy.\nLegend: A—water (control); B—sauvagine (1 mg/kg/d); C—urocortin (1.0 mg/kg/d); *—p≦0.05 compared to water. Following denervation of the right sciatic nerve, male mice were dosed with the above indicated agents or vehicle control (physiological saline) by continuous infusion using an Alzet osmotic minipump at 5 μl/hr until the end of the experimental period (without additional theophylline). The daily delivered dose of the agents is indicated above. Minipump implantation was performed at the same time as the sciatic nerve denervation. On day nine the tibialis anterior muscle was removed and weighed to determine the degree of atrophy.\nLegend: A-C—wild-type mice; D-F—CRF2R knockout mice. A and D—water (control); B and E—sauvagine (0.3 mg/kg/d); C and F—sauvagine (1.0 mg/kg/d); *—p≦0.05 compared to saline. Following denervation of the right sciatic nerve, female wild-type and CRF2R knockout mice were dosed with sauvagine or vehicle control by continuous infusion using an Alzet osmotic minipump at 5 μl/hr for nine days at the daily delivered dose indicated above. On day nine, the tibialis anterior muscle was removed and weighed to determine the degree of atrophy.\nThe sciatic nerve denervation atrophy model involves anesthetizing the animal followed by the surgical removal of a short segment of either the right or left sciatic nerve, e.g., in mice the sciatic nerve is isolated approximately at the midpoint along the femur and a 3-5 mm segment is removed. This denervates the lower hind limb musculature resulting in atrophy of these muscles. Typically, innervation to the biceps femoris is left intact to provide satisfactory motion of the knee for virtually normal ambulation. Typically, in untreated animals, muscle mass of the denervated muscles is reduced 30-50% ten days following denervation. Following denervation, test compounds are administered e.g., by injection or by continuous infusion, e.g., via implantation of an osmotic minipump (e.g., Alzet, Palo Alto, Calif.), to determine their effect on denervation induced skeletal muscle atrophy. At various times following denervation, the animals are euthanized and lower leg muscles are dissected rapidly from both the denervated and nondenervated legs, the muscles, cleaned of tendons and connective tissue, are weighed. The extent of atrophy in the affected muscles is analyzed, for example, by measuring muscle mass, muscle cross-sectional area, myofiber cross-sectional area or contractile protein content."}, "[4]": {"tested_on": "disuse-induced atrophy of skeletal muscle", "assay": "mouse leg casting disuse atrophy model", "details": "male mice, 0.3 mg/kg s.c. twice daily + theophylline 30 mg/kg i.p., ten days", "protocol": "(§1) Legend: A—physiological saline (control); B—theophylline; C—sauvagine (0.03 mg/kg)+theophylline; D—sauvagine (0.1 mg/kg)+theophylline; E—sauvagine (0.3 mg/kg)+theophylline; *—p≦0.05 compared to saline. Following casting of the right hind leg, male mice were injected subcutaneously in the midscapular region twice daily, with sauvagine or vehicle control (physiological saline) for ten days at the daily delivered dose indicated. Sauvagine was co-administered with twice daily intra-peritoneal dosing of the phosphodiesterase inhibitor theophylline (30 mg/kg). On day ten, the medial gastrocnemius and tibialis anterior muscles were removed and weighed to determine the degree of atrophy.\nas §1, with “B—urocortin” for “B—theophylline; C—sauvagine (0.03 mg/kg)+theophylline; D—sauvagine (0.1 mg/kg)+theophylline; E—sauvagine”, “urocortin” for “sauvagine”, “days. Urocortin was administered” for “days”, “doses indicated in the description of FIGS. 6A and 6B. Urocortin” for “daily delivered dose indicated. Sauvagine”\nLegend: A—non casted muscle control; B—casted muscle, saline control; C—casted muscle, sauvagine (0.3 mg/kg)+theophylline (30 mg/kg); *—p≦0.05 compared to saline. Following casting of the right hind leg, male mice were injected subcutaneously in the midscapular region twice daily, with either sauvagine or vehicle control (physiological saline) for ten days at the doses indicated above. Sauvagine was co-administered 30 mg/kg theophylline. On day ten, the EDL and soleus muscles were removed and absolute force and mass measurements taken to determine the degree of atrophy.\nThe leg casting disuse atrophy model involves casting one hind leg of an animal from the knee down through the foot. Typically, muscle mass is reduced 20-40% after ten days of casting. Following casting, test compounds are administered by injection or by continuous infusion via implantation of an osmotic minipump (e.g., Alzet, Palo Alto, Calif.) to determine their effect on leg casting induced skeletal muscle atrophy. At various times following leg casting, the extent of atrophy in the affected muscles is analyzed as described above for the denervation model.\nThe extensor digitorum longus (EDL) and soleus muscles are removed, tendon-to-tendon from the casted mouse leg. A silk suture is tied to each tendon of the isolated muscles and the muscles are placed into a plexiglass chamber filled with Ringer solution (137 mM sodium chloride, 24 mM sodium bicarbonate, 11 mM glucose, 5 mM potassium chloride, 1 mM magnesium sulfate, 1 mM sodium phosphate, 0.025 mM tubocurarine, all at pH 7.4 and oxygenated with 95% oxygen/5% carbon dioxide) constantly bubbled with 95% oxygen/5% carbon dioxide maintained at 25° C. Muscles are aligned horizontally between a servomotor lever arm (Model 305B-LR Cambridge Technology Inc., Watertown Mass., USA) and the stainless steel hook of a force transducer (Model BG-50; Kulite Semiconductor Products Inc., Leonia, N.J., USA) and field stimulated by pulses transmitted between two platinum electrodes placed longitudinally on either side of the muscle. Square wave pulses (0.2 ms duration) generated by a personal computer with a Labview board (Model PCI-MIO 16E-4), Labview Inc., Austin, Tex., USA) are amplified (Acurus power amplifier model A25, Dobbs Ferry, N.Y., USA) to increase titanic contraction. Stimulation voltage and muscle length (Lo) are adjusted to obtain maximum isometric twitch force. Maximum titanic force production (Po) is determined from the plateau of the frequency-force relationship."}}, "note": "Ends that are not written are not given here."}
{"compound": "Urocortin-II (VILSLDVPIGLLRILLEQARYKAARNQAATNAQILAHV; listed as Mus musculus) [CRF analog]", "values": [{"measurement": "skeletal muscle mass and function", "setting": "skeletal muscle atrophy [1]", "value": "measurable preservation of skeletal muscle mass and function"}]}
{"compound": "Cn1c(=O)c2[nH]cnc2n(C)c1=O", "note": "[Theophylline, theophylline]", "values": [{"measurement": "effect on skeletal muscle atrophy", "setting": "skeletal muscle atrophy [2]", "value": "had no effect"}]}
{"compound": "urocortin (DNPSLSIDLTFHLLRTLLELARTQSQRERAEQNRIIFDSV; ends and bridges not checked; UniProt P55089 83-122, looked up) [mammalian congener of urotensin, CRFR agonist (Bachem Biosciences, Inc.)]", "values": [{"measurement": "hypertrophy of the non-denervated leg (tibialis anterior muscle)", "setting": "[3]; 1.0 mg/kg/d by osmotic minipump", "value": "hypertrophy of the non-denervated leg was observed"}, {"measurement": "denervation-induced atrophy of the tibialis anterior muscle (muscle weight)", "setting": "[3]; male mice, 1 mg/kg/d continuous infusion by osmotic minipump, no theophylline", "value": "inhibit denervation-induced atrophy"}, {"measurement": "disuse-induced atrophy of the tibialis anterior muscle (muscle weight)", "setting": "[4]; FIG. 6A", "value": "inhibits disuse-induced atrophy"}, {"measurement": "disuse-induced atrophy of the medial gastrocnemius muscle (muscle weight)", "setting": "[4]; FIG. 6B", "value": "inhibits disuse-induced atrophy"}]}
